Test results reported in US6624187B1, “Long wave length absorbing bacteriochlorin alkyl ether analogs” (Health Research, Inc., priority 2000, dated 2003).
“Also recorded” adds a separate entry of the source.

What was measured:
[1] = In vivo PDT efficacy of bacteriochlorin-N-hexylimide
From the text: Compared to the anhydride ring system, compounds with fused imide ring system in other compounds have shown stability in vivo. For example, among non-porphyrin systems, amonafide, an imide derivative and its structural analogs are reported as anti-neoplastic agents in vitro as well as in vivo with good stability. While we could not know how this might apply to non-porphyrin systems, we investigated the effect of such cyclic structures in the bacteriochlorin system. Initially we followed our own methodology developed for the preparation of purpurin-18-N-alkylimides (U.S. Pat. No. 5,952,366 incorporated herein by reference). Unfortunately, that approach produced a complex reaction mixture. Thus, in a modified approach, bacteriopurpurin-a 2 was first reacted with an alkyl amine (e.g. n-hexyl amine). The formation of the intermediate amide was monitored by spectrophotometry and analytical thin layer chromatography. The intermediate amide analog 3, obtained as a mixture of two isomers, was reacted with diazomethane, and the solvent was removed under vacuum. The residue so obtained was re-dissolved in tetrahydrofuran, and solvent was evaporated. This procedure was repeated several times until the disappearance of the absorption at 765 nm and appearance of a new peak at 822 nm.

RIF tumor [2] = experiment: In vivo photosensitizing efficacy of bacteriopurpurinimides against RIF tumor; settings: for Tumor Response (%): Day 7-90
Description: The photosensitizers were dissolved in known quantity of Tween 80 (Aldrich) surfactant and diluted by a factor of 10 with 5% dextrose solution in water to produce a final Tween 80 concentration of 1%. The solution was then filtered through a syringe filter. The concentration of the solution was determined on the basis of the extinction coefficient value of the photosensitizer at the longest wavelength absorption.
Before injecting the drug to the animals, the purity of the material was confirmed by HPLC using a Spectra-Physics system connected to a SP8 700 solvent delivery system and Kratos 757 absorption detector with a fixed wavelength at 405 or 786 nm. Two solvent systems were used in the HPLC analysis: solvent A was prepared by dissolving anhydrous dibasic sodium phosphate (1.0 g) in 400 ml water. To this was added HPLC grade methanol (600 ml). The pH of the solution was adjusted to 7.5 with phosphoric acid; and solvent B was prepared by dissolving anhydrous dibasic sodium phosphate (0.3 g) in 100 ml water, to this was added methanol (900 ml), and the pH was adjusted to 7.5 with phosphoric acid. Solvents A and B were used as gradient mode (0-10 min A, 10-40 min A-B, 40-50 min B, 50-60 min back to A). In some cases solvent B was used as isocratic mode (column reverse phase C-8, flow rate 1.5 ml/min). Prior to irradiation, the fur over grown and surrounding the tumor was removed with electric clippers. Twenty four hours after injecting the drug, the mouse was placed in a custom made aluminum holder. Standard light dose 75 mW/cm^2 for 30 min for a total incident light dose of 135 J/cm^2 from a tunable dye laser tuned to the maximum red absorption peak at 790 nm (in vivo absorption, determined by in vivo reflectance spectroscopy). Laser output was measured with a power meter.
Following light exposure, the mice were kept in groups of 5/cage and supplied with pelleted food and water ad libitum. Tumor size and gross appearance of both tumor and overlying skin was monitored daily for 90 days after photo-illumination unless growth of non-responsive tumor require early sacrifice of those animals.
Bacteriopurpurin-imides 5-7 above have been evaluated for in vivo studies in a mouse tumor model system (RIF tumor). […] The mice were treated with light (790 nm, 135 J/cm^2) after 24 h post injection of the drug (80% tumor cure on day 21 and 60% on day 90). […] The efficacy of the drug was also determined at variable drug and light doses.

RIF tumor [3] = experiment: Tumor uptake and in vivo absorption shift by in vivo reflectance spectroscopy; set-up: species or system mouse
Description: FIGS. 4A and 4B show curves of in vivo light wave absorption of compound 7 in RIF tumor at 24 hours and 5 days post injection.
The tumor uptake and in vivo shift in the long wavelength absorption of the bacteriopurpurin-imide 7 was determined by in vivo reflectance spectroscopy. […] Thus, the tumors were irradiated with light at that particular wavelength. […] In vivo studies with these and other bacteriochlorin analogs at variable treatment conditions are currently in progress.

mouse foot tissue = experiment: Foot response phototoxicity in mouse foot tissue; format: in vivo; settings: 0.47 mmol/kg I.V.; 135 J/cm^2 at 790 nm; feet illuminated 5 days after injection
Description: Since prolonged cutaneous photosensitivity is a serious side-effect of Photofrin® administration, we tested the phototoxicity of 3-deacetyl-3-(1-heptyloxyethyl) bacteriopurpurin-18-N-hexylimide 7 in mouse foot tissue and the therapeutic drug and light doses. Mice were injected (I.V.) with 0.47 mmol/kg of the drug. Feet were illuminated with 135 J/cm^2 at 790 nm laser light on days 1, 2, 3, 4 and 5 (FIG. 5). Foot response was graded according to the following arbitrary scale: 0, no difference from normal; 0.1, very slight edema; 0.3, slight edema; 0.5, moderate edema; 0.75, large edema; 1, large edema with exudate; 1.2, moderate reddening with slight scaly or crusty appearance; 1.65, slight damage to toes; 1.75, definite damage or slight fusion of toes; 2.0, most toes fused; 2.5, foot almost shapeless with no toes; 3, only stub of foot remaining.

[4] = injected dose 1.0 μmol/kg, light 790 nm 135J/cm^2 24 h post injection, C3H mice
[5] = injected dose 0.2 μmol/kg, light 790 nm 175J/cm^2 24 h post injection
[6] = injected dose 0.47 μmol/kg, light 790 nm 135J/cm^2 24 h post injection

3-Acetyl-bacteriopurpurin-18-N-hexylimide [Compound 4]
in vivo PDT efficacy [1]: did not produce any significant in vivo PDT efficacy

CCCCCCN1C(=O)c2c3nc(cc4[nH]c(cc5nc(cc6[nH]c2c(c6C)C1=O)[C@H](CC)[C@H]5C)c(C(C)O)c4C)[C@@H](C)[C@@H]3CCC(=O)OCCC (stereo partly shown) [Compound 5, 3-Deacetyl-3-(1-hydroxyethyl)bacteriopurrurin-18-N-hexylimide]
Tumor Response (%) (RIF tumor [2]; [4]): did not produce any PDT efficacy; also recorded: NO RESPONSE

C=Cc1c(C)c2cc3nc(c4c5[nH]c(cc6nc(cc1[nH]2)[C@H](C)[C@H]6CC)c(C)c5C(=O)N(CCCCCC)C4=O)[C@@H](CCC(=O)OCCC)[C@@H]3C [Compound 6, 3-Deacetyl-3-vinyl-bacteriopurpurin-18-N-hexylimide Propylester]
Tumor Response (%) (RIF tumor [2]; [4]): did not produce any PDT efficacy; also recorded: NO RESPONSE

CCCCCCCOC(C)c1c(C)c2cc3nc(c4c5[nH]c(cc6nc(cc1[nH]2)[C@H](C)[C@H]6CC)c(C)c5C(=O)N(CCCCCC)C4=O)[C@@H](CCC(=O)OCCC)[C@@H]3C (stereo partly shown) [Compound 7, 3-Deacetyl-3-(1-heptyloxyethyl)-bacteriopurpurin-N-hexylimide Propyl Ester]
mice tumor free on day 90 (RIF tumor [2]; drug dose 0.2 μmol/kg, light dose 175 J/cm^2): four out of six
mice died after the light treatment (RIF tumor [2]; drug dose 1.0 μmol/kg, light 790 nm, 135 J/cm^2): 6/6
Tumor Response (%) (RIF tumor [2]; injected dose 0.2 μmol/kg, light 790 nm 135J/cm^2 24 h post injection): did not show any PDT efficacy; also recorded: NO RESPONSE
Tumor Response (%) Day 7 (RIF tumor [2]; [5]): 100%
Tumor Response (%) Day 21 (RIF tumor [2]; [5]): 70%
Tumor Response (%) Day 90 (RIF tumor [2]; [5]): 70%
Tumor Response (%) Day 7 (RIF tumor [2]; [6]): 80%
Tumor Response (%) Day 21 (RIF tumor [2]; [6]): 80%
Tumor Response (%) Day 90 (RIF tumor [2]; [6]): 60%
Tumor Response (%) (RIF tumor [2]; [4]): ALL MICE DIED
in vivo stability of fused imide ring system (RIF tumor [3]; 5 day post injection): quite stable in vivo
tumor uptake (RIF tumor [3]; day 5 versus day 1 post injection, RIF tumor): significantly higher tumor uptake at day 5 than day 1
foot response phototoxicity (mouse foot tissue): did not show any toxicity
